Measurements from paper PMC8293625, “HLA class-I-peptide stability mediates CD8^+ T cell immunodominance hierarchies and facilitates HLA-associated immune control of HIV” (Cell Reports, 2021).
Read-outs that look alike come from different tables or passages of the source.

System: HLA class-I alleles A*0101, A*0201, A*0301, A*2402, B*0702, B*0801, B*1402, B*1501, B*2705, B*3501, B*3901, B*4001, B*4402, B*5201, B*5701, B*5801, B*8101 …
Assay type: cell-based, human
Conditions: relative anti-HLA MFI; for Relative HLA MFI (10 uM): peptide 10 uM; for Relative HLA MFI (100 uM): peptide 100 uM
[1] = HLA A*02 mono-allelic TAP-deficient 721.221 cells
[2] = HLA B*15 mono-allelic TAP-deficient 721.221 cells
[3] = HLA B*44 mono-allelic TAP-deficient 721.221 cells
[4] = HLA A*24 mono-allelic TAP-deficient 721.221 cells
[5] = HLA B*27 mono-allelic TAP-deficient 721.221 cells
[6] = HLA B*40 mono-allelic TAP-deficient 721.221 cells
[7] = HLA B*35 mono-allelic TAP-deficient 721.221 cells
[8] = HLA B*08 mono-allelic TAP-deficient 721.221 cells
[9] = HLA B*14 mono-allelic TAP-deficient 721.221 cells
[10] = section B*58, TAP-deficient mono-allelic 721.221 cells
[11] = HLA A*01 mono-allelic TAP-deficient 721.221 cells

## LTFGWCFKLV [LV10]
[1]
  Relative HLA MFI (10 uM): 0.05804
  Relative HLA MFI (100 uM): 0.3313

## VTDSQYALGI [VI10]
[2]
  Relative HLA MFI (10 uM): 0.2539
  Relative HLA MFI (100 uM): 0.3145

## ILKEPVHGVY [IY10]
[2]
  Relative HLA MFI (10 uM): 0.8156
  Relative HLA MFI (100 uM): 0.9672

## TQGYFPDWQNY [TY11]
[2]
  Relative HLA MFI (10 uM): 0.7367
  Relative HLA MFI (100 uM): 1

## AENLWVTVY [AY9]
[3]
  Relative HLA MFI (10 uM): 0.05892
  Relative HLA MFI (100 uM): 0.08113

## LFCASDAKAY [LY10]
[4]
  Relative HLA MFI (10 uM): 0.02963
  Relative HLA MFI (100 uM): 0.03673

## FRNQRKTVK [FK9]
[5]
  Relative HLA MFI (10 uM): 0.5455
  Relative HLA MFI (100 uM): 0.7098

## FLGKIWPSYK [FK10]
[1]
  Relative HLA MFI (10 uM): 0.3666
  Relative HLA MFI (100 uM): 0.8111

## IEAEVIPAET [IT10]
[6]
  Relative HLA MFI (10 uM): 0.2066
  Relative HLA MFI (100 uM): 0.5363

## KYKLKHIVW [KW9]
[4]
  Relative HLA MFI (10 uM): 0.7498
  Relative HLA MFI (100 uM): 0.9719

## NPPIPVGDQY [NQY10]
[7]
  Relative HLA MFI (10 uM): 0.826
  Relative HLA MFI (100 uM): 1

## IRLRPGGKK [IK9]
[5]
  Relative HLA MFI (10 uM): 0.4586
  Relative HLA MFI (100 uM): 0.6695

## VLEWRFDSRL [VL10]
[1]
  Relative HLA MFI (10 uM): 0.04901
  Relative HLA MFI (100 uM): 0.4134

## TAVPWNASW [TW9]
[7]
  Relative HLA MFI (10 uM): 0.4789
  Relative HLA MFI (100 uM): 0.6125

## IEIKDTKEAL [IL10]
[6]
  Relative HLA MFI (10 uM): 0.5859
  Relative HLA MFI (100 uM): 0.9466

## HPDIVIYQY [HY9]
[7]
  Relative HLA MFI (10 uM): 0.7238
  Relative HLA MFI (100 uM): 0.7648

## WPTVRERM [WM8]
[8]
  Relative HLA MFI (10 uM): 0.08175
  Relative HLA MFI (100 uM): 0.02576

## AENLWVTVYY [AY10]
[3]
  Relative HLA MFI (10 uM): 0
  Relative HLA MFI (100 uM): 0

## AEQASQDVKNW [AW11]
[3]
  Relative HLA MFI (10 uM): 0
  Relative HLA MFI (100 uM): 0.4825

## VIYQYMDDL [VL9]
[1]
  Relative HLA MFI (10 uM): 0.03377
  Relative HLA MFI (100 uM): 0.4231
[4]
  Relative HLA MFI (10 uM): 0.347
  Relative HLA MFI (100 uM): 0.8132
[5]
  Relative HLA MFI (10 uM): 0.653
  Relative HLA MFI (100 uM): 0.7425

## VLAEAMSQV [VV9]
[1]
  Relative HLA MFI (10 uM): 0.4244
  Relative HLA MFI (100 uM): 0.794

## ERYLKDQQL [EL9]
[9]
  Relative HLA MFI (10 uM): 0.3611
  Relative HLA MFI (100 uM): 0.6038

## EPVDPRLEPW [EW10]
[10]
  Relative HLA MFI (10 uM): 0.4559
  Relative HLA MFI (100 uM): 0.8149

## CRAPRKKGC [CC9]
[9]
  Relative HLA MFI (10 uM): 0.1793
  Relative HLA MFI (100 uM): 0.3169

## VKVIEEKAF [VF9]
[2]
  Relative HLA MFI (10 uM): 0.2223
  Relative HLA MFI (100 uM): 0.4298

## LVGPTPVNI [LI9]
[1]
  Relative HLA MFI (10 uM): 0.2406
  Relative HLA MFI (100 uM): 0.4593

## KTAVQMAVF [KF9]
[10]
  Relative HLA MFI (10 uM): 0.5529
  Relative HLA MFI (100 uM): 0.8577

## WRFDSRLAFH [WH10]
[11]
  Relative HLA MFI (10 uM): 0.02411
  Relative HLA MFI (100 uM): 0.1796

## ILKEPVHGV [IV9]
[1]
  Relative HLA MFI (10 uM): 0.3745
  Relative HLA MFI (100 uM): 1

## KRKGGIGGY [KY9]
[5]
  Relative HLA MFI (10 uM): 0.623
  Relative HLA MFI (100 uM): 0.931
